According to patent US20250163057A1, “DCN-1 MODULATING COMPOUNDS AND METHODS OF USE THEREOF” (Cellarity, Inc., priority 2023, published 2025):
Where two headings read alike, the source gives them in different places.

Experiments:
[1] = tested on: Cullin-3 (CUL3) neddylation; experiment: AlphaLISA assay for Cullin-3 (CUL3) neddylation in TF 1 cells; type: cell-based; details: Homo sapiens, TF-1, 3 h, 3 hours treatment
Procedure, shortened: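 Neddylated CUL3 was quantified by AlphaLISA in lysates of TF 1 cells exposed for 3 h to test compound in IMDM without supplements. Percent inhibition set between vehicle and 1 μM DI-1548 positive control; IC50 derived by Hill-equation fitting of dose-response curves.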

[2] = biological target: DCN1 (DCUND1) protein PONY domain (Homo sapiens (Human), UniProt Q96GG9); experiment: TR-FRET assay, DCN1 binding with FAM-labeled probe
Sequence of DCN1 (DCUND1) protein PONY domain (Q96GG9 60-248): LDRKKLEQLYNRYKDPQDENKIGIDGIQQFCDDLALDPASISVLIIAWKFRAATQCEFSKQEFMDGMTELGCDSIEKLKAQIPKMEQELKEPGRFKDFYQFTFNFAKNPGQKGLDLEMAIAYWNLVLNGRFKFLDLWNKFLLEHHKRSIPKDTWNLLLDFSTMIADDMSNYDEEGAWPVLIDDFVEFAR
Procedure, shortened: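 First, the E. coli-derived PONY domain was biotinylated and paired with streptavidin Tb cryptate. Compounds in 0.1% DMSO were then added to DCN1 and FAM-probe (5 nM/20 nM, or 0.31 nM/900 nM total with 800 nM unlabelled) in TritonX, 200 mM NaCl buffer. Finally, TR-FRET ratios were recorded at 1, 5 and 24 hrs.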

[3] = 24 hr after treatment with compound, read-out: TR FRET IC50 24 hr
[4] = TR FRET IC50 1 hr (nM), 1 hr after treatment with compound
[5] = read-out: TR FRET IC50 1 hr, 1 hr after treatment with compound

SMILES | IC50 [1] [nM] | IC50 [2, 3] [nM] | IC50 [2, 4] [nM] | IC50 [2, 5] [nM]
C=CC(=O)N[C@H](C)c1nn(-c2ccccc2)c2c1[C@@H](c1ccc(F)cc1)[C@H](NC(=O)c1nccc(C(F)(F)F)n1)C(=O)N2CC [Compound I-533] | 100 to 1000 | 200 to 1000 | 200 to 1000 | 
CCN1C(=O)[C@H](NC(=O)c2cccc(C(F)(F)F)c2)[C@H](c2ccc(F)cc2)c2c(C(=O)N3CCNC[C@@H]3C#N)nn(-c3ccccc3)c21 [Compound I-534] | > 1000 | 1000 to 3000 | 1000 to 3000 | 
CCN1C(=O)[C@H](NC(=O)c2cccc(C(F)(F)F)c2)[C@H](c2ccc(F)cc2)c2c(C(=O)N3CC[C@H]3C#N)nn(-c3ccccc3)c21 [Compound I-535] | > 1000 | 1000 to 3000 | 1000 to 3000 | 
CCN1C(=O)[C@@H](NC(=O)c2cccc(C(F)(F)F)c2)[C@@H](c2ccc(F)cc2)c2c([C@@H](C)N(C#N)C(=O)OCCN3CCN(C)CC3)nn(-c3ccccc3)c21 [Compound I-536] | 100 to 1000 | ≤ 200 |  | ≤ 200
CCN1C(=O)[C@@H](NC(=O)c2cccc(C(F)(F)F)c2)[C@@H](c2ccc(F)cc2)c2c(CCN(C#N)CCO)nn(-c3ccccc3)c21 [Compound I-538] | 100 to 1000 | ≤ 200 | 200 to 1000 | 
CCN1C(=O)[C@@](C)(NC(=O)c2cccc(C(F)(F)F)c2)[C@@H](c2ccc(F)cc2)c2c([C@@H](C)NC#N)nn(-c3ccccc3)c21 [Compound I-539] | ≤ 100 | ≤ 200 |  | ≤ 200
CCN1C(=O)[C@H](NC(=O)c2cccc(C(F)(F)F)c2)[C@H](c2ccc(F)cc2)c2c(C(=O)N3CCOC[C@H]3C#N)nn(-c3ccccc3)c21 [Compound I-540] | > 1000 | 1000 to 3000 | 1000 to 3000 | 
CCN1C(=O)[C@H](NC(=O)c2cccc(C(F)(F)F)c2)[C@H](c2ccc(F)cc2)c2c(C(=O)N3[C@H](C#N)C[C@H]4C[C@H]43)nn(-c3ccccc3)c21 [Compound I-541] | > 1000 | 1000 to 3000 | 1000 to 3000 | 
CCN1C(=O)[C@@H](NC(=O)c2cccc(C(F)(F)F)c2)[C@@H](c2ccc(F)cc2)c2c(CN(CC#N)C(C)=O)nn(-c3ccccc3)c21 [Compound I-542, N-((4S,5S)-3-((N-(cyanomethyl)acetamido)methyl)-7-ethyl-4-(4-fluorophenyl)-6-oxo-1-phenyl-4,5,6,7-tetrahydro-1H-pyrazolo[3,4-b]pyridin-5-yl)-3-(trifluoromethyl)benzamide] | 100 to 1000 | 200 to 1000 | 1000 to 3000 | 
CCN1C(=O)[C@H](NC(=O)c2cccc(C(F)(F)F)c2)[C@H](c2ccc(F)cc2)c2c(C(=O)N3CCC[C@H]3C#N)nn(-c3cccc(OCCCN4CCOCC4)c3)c21 [Compound I-544] | > 1000 | 1000 to 3000 | 1000 to 3000 | 
CCN1C(=O)[C@@H](NC(=O)[C@@H]2CCc3nccc(=O)n32)[C@@H](C2CC2)c2c(C(=O)N3[C@H](C#N)C[C@H]4C[C@H]43)nn(C3CCOCC3)c21 [Compound I-548] | > 1000 | 1000 to 3000 | 1000 to 3000 | 
CCN1C(=O)[C@@H](NC(=O)c2cccc(C(F)(F)F)c2)[C@@H](C2CC2)c2c(C(=O)N(C)[C@@H](C)C#N)nn(C3CCOCC3)c21 [Compound I-549, (4S,5S)—N—((S)-1-cyanoethyl)-4-cyclopropyl-7-ethyl-N-methyl-6-oxo-1-(tetrahydro-2H-pyran-4-yl)-5-(3-(trifluoromethyl)benzamido)-4,5,6,7-tetrahydro-1H-pyrazolo[3,4-b]pyridine-3-carboxamide] | ≤ 100 | ≤ 200 | 200 to 1000 | 
CCN1C(=O)[C@@H](NC(=O)c2cccc(C(F)(F)F)c2)[C@@H](C2CC2)c2c(C(=O)N(C)[C@@H](C#N)CCN(C)C)nn(C3CCOCC3)c21 [Compound I-550] | ≤ 100 | ≤ 200 |  | ≤ 200
CCN1C(=O)[C@@H](NC(=O)c2cccc(C(F)(F)F)c2)[C@@H](C2CC2)c2c(C(=O)N3CCOC[C@@H]3C#N)nn(C3CCOCC3)c21 [Compound I-551] | 100 to 1000 | 200 to 1000 | 200 to 1000 | 
CCN1C(=O)[C@H](NC(=O)c2cccc(C(F)(F)F)c2)[C@H](C2CC2)c2c(C(=O)N(CC#N)C3CC3)nn(-c3ccccc3)c21 [Compound I-557] | > 1000 | 1000 to 3000 | 1000 to 3000 | 
CCN1C(=O)[C@H](NC(=O)c2cccc(C(F)(F)F)c2)[C@H](c2ccc(F)cc2)c2c(C(=O)N3CCC[C@H]3C#N)nn(C3CC3)c21 [Compound I-558] | > 1000 | 1000 to 3000 | 1000 to 3000 | 
CCN1C(=O)[C@@H](NC(=O)c2cccc(C(F)(F)F)c2)[C@@H](C2CCCC2)c2c(C(=O)N(C)[C@@H](C)C#N)nn(C3CCOCC3)c21 [Compound I-559] | ≤ 100 | ≤ 200 | 200 to 1000 | 

SMILES | IC50 [1] [nM] | IC50 [2, 3] [nM] | IC50 [2, 4] [nM] | IC50 [2, 5] [nM]
CCN1C(=O)[C@@H](NC(=O)c2cccc(C(F)(F)F)c2)[C@@H](C2CC2)c2c(C(=O)N3CC[C@H]3C#N)nn(-c3ccccc3)c21 [Compound I-561] | ≤ 100 | ≤ 200 | 1000 to 3000 | 
CCN1C(=O)[C@@H](NC(=O)c2ccc3cn[nH]c3c2)[C@@H](C2CC2)c2c(C(=O)N3[C@H](C#N)C[C@H]4C[C@H]43)nn(C3CCOCC3)c21 [Compound I-563] | > 1000 | 1000 to 3000 | 1000 to 3000 | 
CCN1C(=O)[C@@H](NC(=O)c2ccc3ncoc3c2)[C@@H](C2CC2)c2c(C(=O)N3[C@H](C#N)C[C@H]4C[C@H]43)nn(C3CCOCC3)c21 [Compound I-564] | > 1000 | 1000 to 3000 | 1000 to 3000 | 
CCN1C(=O)[C@@H](NC(=O)c2cccc3ncoc23)[C@@H](C2CC2)c2c(C(=O)N3[C@H](C#N)C[C@H]4C[C@H]43)nn(C3CCOCC3)c21 [Compound I-565] | ≤ 100 | ≤ 200 | 200 to 1000 | 
CCN1C(=O)[C@@H](NC(=O)[C@H]2C[C@@H]3CCCC[C@@H]3N2)[C@@H](C2CC2)c2c(C(=O)N3[C@H](C#N)C[C@H]4C[C@H]43)nn(C3CCOCC3)c21 [Compound I-566] | > 1000 | 1000 to 3000 | 1000 to 3000 | 
CCCn1nc(C(=O)N(C)C(C)C#N)c2c1N(CC)C(=O)[C@@H](NC(=O)c1cccc(C(F)(F)F)c1)[C@H]2C1CC1 (stereo partly drawn) [Compound I-569] | ≤ 100 | ≤ 200 | 200 to 1000 | 
CCN1C(=O)[C@@H](NC(=O)c2cccc(C(F)(F)F)c2)[C@@H](c2ccc(F)cc2)c2c(C(=O)N3CC[C@@H]3C#N)nn(-c3ccccc3)c21 [Compound I-570] | 100 to 1000 | 200 to 1000 | 1000 to 3000 | 
CCCn1nc(C(=O)N2CCC[C@H]2C#N)c2c1N(CC)C(=O)[C@H](NC(=O)c1cccc(C(F)(F)F)c1)[C@@H]2C1CC1 [Compound I-571] | > 1000 | 1000 to 3000 | 1000 to 3000 | 
CCCn1nc(C(=O)N(CC#N)C2CC2)c2c1N(CC)C(=O)[C@H](NC(=O)c1cccc(C(F)(F)F)c1)[C@@H]2c1ccc(F)cc1 [Compound I-572] | > 1000 | 1000 to 3000 | 1000 to 3000 | 
CCN1C(=O)[C@@H](NC(=O)c2cccc(C(F)(F)F)c2)[C@@H](c2ccc(F)cc2)c2c(CN(C#N)CCCN3CC4(COC4)C3)nn(-c3ccccc3)c21 [Compound I-577] | > 1000 | 200 to 1000 | 200 to 1000 | 
CCN1C(=O)[C@@H](NC(=O)c2cccc(C(F)(F)F)c2)[C@@H](c2ccc(F)cc2)c2c([C@@H](C)N(C#N)CCCN(C)C)nn(-c3ccccc3)c21 [Compound I-578, N-((4S,5S)-3-((R)-1-(N-(3-(dimethylamino)propyl)cyanamido)ethyl)-7-ethyl-4-(4-fluorophenyl)-6-oxo-1-phenyl-4,5,6,7-tetrahydro-1H-pyrazolo[3,4-b]pyridin-5-yl)-3-(trifluoromethyl)benzamide] | 100 to 1000 | 1000 to 3000 | 1000 to 3000 | 
CCN1C(=O)[C@@H](NC(=O)c2cccc(C(F)(F)F)c2)[C@@H](c2ccc(F)cc2)c2c(CN(C#N)CCCN3CCC4(CC3)COC4)nn(-c3ccccc3)c21 [Compound I-579] | ≤ 100 | ≤ 200 |  | ≤ 200
CCN1C(=O)[C@H](NC(=O)c2cccc(C(F)(F)F)c2)[C@H](c2ccc(F)cc2)c2c(C(=O)N3CCC[C@H]3C#N)nn(-c3cccc(OCCCN4CCC5(CC4)COC5)c3)c21 [Compound I-581] | > 1000 | 200 to 1000 | 1000 to 3000 | 
CCN1C(=O)[C@H](NC(=O)c2cccc(C(F)(F)F)c2)[C@H](c2ccc(F)cc2)c2c(C(=O)N3CCC[C@H]3C#N)nn(-c3cccc(OCCN(C)C4COC4)c3)c21 [Compound I-584] | > 1000 | 1000 to 3000 | 1000 to 3000 | 
CCN1C(=O)[C@@H](NC(=O)c2nc(C(F)(F)F)cs2)[C@@H](c2ccc(F)cc2)c2c(C(=O)N3CCC[C@H]3C#N)nn(C3CCOCC3)c21 [Compound I-586] | ≤ 100 | 200 to 1000 | 1000 to 3000 | 
CCN1C(=O)[C@@H](NC(=O)c2cccc(C(F)(F)F)c2)[C@@H](C2CC2)c2c(C(=O)N(C)[C@H](C#N)CCN(C)C)nn(C3CCOCC3)c21 [Compound I-589] | ≤ 100 | ≤ 200 |  | ≤ 200
CCN1C(=O)[C@@H](NC(=O)c2cccc(C(F)(F)F)c2)[C@@H](C2CCC2)c2c(C(=O)N3[C@H](C#N)C[C@H]4C[C@H]43)nn(C3CCOCC3)c21 [Compound I-593] | ≤ 100 | ≤ 200 |  | ≤ 200
